*1 amine or outer side, *2 acyl side, *3 side chain or, on linkers, in order; H or OH if unused. Where a SMILES comes first, the peptide text is derived from it. Bridges are numbered along the chain shown (N, C = ends). [ ]: non-standard residue; d: D form. Azetidine3carboxylic = O=C(C1CN([*:1])C1)[*:2]; 2Nal = N[C@@H](Cc1ccc2ccccc2c1)C(=O)O; d2Nal = N[C@H](Cc1ccc2ccccc2c1)C(=O)O; NMeCha = CN[C@@H](CC1CCCCC1)C(=O)O; NMeR = CN[C@@H](CCCNC(=N)N)C(=O)O; hArg = N=C(N)NCCCC[C@H](N)C(=O)O; tBuAla = CC(C)(C)C[C@H](N)C(=O)O; NMeQ = CN[C@@H](CCC(N)=O)C(=O)O; Cha = N[C@@H](CC1CCCCC1)C(=O)O; dCha = N[C@H](CC1CCCCC1)C(=O)O; Cba = N[C@@H](CC1CCC1)C(=O)O; S5 = C=CCCC[C@](C)(N)C(=O)O; Ac4c = NC1(C(=O)O)CCC1
These molecules were tested on Colo320DM (assay: Colo320DM cell viability).
Format: cell-based, human
Source text: In some embodiments, a polypeptide described herein inhibits binding of BLC9 to β-catenin when assessed in a cell-viability assay. In some embodiments, the cell-viability assay is a CellTiterGlo luminescent assay, wherein the viability of cells is quantitatively measured. Various cell lines, transformed cell lines or primary cells derived from a healthy subject or subject suffering from a disease can be used in this assay.

IC50 [µM] | Compound
5.17 | CC[C@H](C)[C@@H]1NC(=O)[C@@](C)(NC(=O)[C@H](CCCCNC(=N)N)NC(=O)[C@H](CC(C)C)NC(=O)[C@@H](NC(=O)[C@H](CCC(N)=O)NC(=O)[C@H](CC(C)C)NC(=O)[C@H](CO)NC(=O)[C@H](CCCNC(=N)N)NC(=O)[C@H](CCC(N)=O)NC(=O)[C@H](CCCNC(=N)N)NC(=O)[C@H](Cc2c[nH]cn2)NC(C)=O)[C@@H](C)O)CCCC=CCCC[C@@](C)(C(=O)N[C@@H](CC2CCC2)C(=O)N[C@@H](Cc2ccc3ccccc3c2)C(N)=O)NC(=O)[C@H](CCCNC(=N)N)NC(=O)[C@H](CCC(N)=O)NC1=O [SEQ ID NO: 170, HRQRSLQTL(homoR)XIQRX(CBA)(2-Nal)] (Ac-HRQRSLQTL[hArg][S5]IQR[S5][Cba][2Nal]-NH2; staple 11-15)
4.76 | CC[C@H](C)[C@@H]1NC(=O)[C@@](C)(NC(=O)[C@H](CCCNC(=N)N)NC(=O)[C@H](CC(C)C)NC(=O)[C@@H](NC(=O)[C@H](CCC(N)=O)NC(=O)[C@H](CC(C)C)NC(=O)[C@H](CO)NC(=O)[C@H](CCCNC(=N)N)NC(=O)[C@H](CCC(N)=O)NC(=O)[C@H](CCCNC(=N)N)NC(=O)[C@H](Cc2c[nH]cn2)NC(C)=O)[C@@H](C)O)CCCC=CCCC[C@@](C)(C(=O)N[C@@H](CC2CCC2)C(=O)N[C@@H](Cc2ccc3ccccc3c2)C(N)=O)NC(=O)[C@H](CCCCNC(=N)N)NC(=O)[C@H](CCC(N)=O)NC1=O [SEQ ID NO: 171, HRQRSLQTLRXIQ(homoR)X(CBA)(2-Nal)] (Ac-HRQRSLQTLR[S5]IQ[hArg][S5][Cba][2Nal]-NH2; staple 11-15)
> 5 | CC[C@H](C)[C@@H]1NC(=O)[C@@](C)(NC(=O)[C@H](CCCNC(=N)N)NC(=O)[C@H](CC(C)C)NC(=O)[C@@H](NC(=O)[C@H](CCC(N)=O)NC(=O)[C@H](CC(C)C)NC(=O)[C@H](CO)NC(=O)[C@H](CCCNC(=N)N)NC(=O)[C@H](CCC(N)=O)NC(=O)[C@H](CCCNC(=N)N)NC(=O)[C@H](Cc2c[nH]cn2)NC(C)=O)[C@@H](C)O)CCCC=CCCC[C@@](C)(C(=O)NC2(C(=O)N[C@@H](Cc3ccc4ccccc4c3)C(N)=O)CCC2)NC(=O)[C@H](CCCNC(=N)N)NC(=O)[C@H](CCC(N)=O)NC1=O [SEQ ID NO: 176, HRQRSLQTLRXIQRX(AC4C)(2-Nal)] (Ac-HRQRSLQTLR[S5]IQR[S5][Ac4c][2Nal]-NH2; staple 11-15)
> 5 | CC[C@H](C)[C@@H]1NC(=O)[C@@](C)(NC(=O)[C@H](CCCNC(=N)N)NC(=O)[C@H](CC(C)C)NC(=O)[C@@H](NC(=O)[C@H](CCC(N)=O)NC(=O)[C@H](CC(C)C)NC(=O)[C@H](CO)NC(=O)[C@H](CCCNC(=N)N)NC(=O)[C@H](CCC(N)=O)NC(=O)[C@H](CCCNC(=N)N)NC(=O)[C@H](Cc2c[nH]cn2)NC(C)=O)[C@@H](C)O)CCCC=CCCC[C@@](C)(C(=O)N2CC(C(=O)N[C@@H](Cc3ccc4ccccc4c3)C(N)=O)C2)NC(=O)[C@H](CCCNC(=N)N)NC(=O)[C@H](CCC(N)=O)NC1=O [SEQ ID NO: 178, HRQRSLQTLRXIQRX(Aze)(2-Nal)] (Ac-HRQRSLQTLR[S5]IQR[S5][Azetidine3carboxylic][2Nal]-NH2; staple 11-15)
2.53 | CC[C@H](C)[C@@H]1NC(=O)[C@@](C)(NC(=O)[C@H](CCCNC(=N)N)NC(=O)[C@H](CC(C)C)NC(=O)[C@@H](NC(=O)[C@H](CCC(N)=O)NC(=O)[C@H](CC(C)C)NC(=O)[C@H](CO)NC(=O)[C@H](CCCNC(=N)N)NC(=O)[C@H](CCC(N)=O)NC(=O)[C@H](CCCCNC(=N)N)NC(=O)[C@H](Cc2c[nH]cn2)NC(C)=O)[C@@H](C)O)CCCC=CCCC[C@@](C)(C(=O)N[C@@H](CC2CCCCC2)C(=O)N[C@@H](Cc2ccc3ccccc3c2)C(N)=O)NC(=O)[C@H](CCCNC(=N)N)NC(=O)[C@H](CCC(N)=O)NC1=O [SEQ ID NO: 183, H(homoArg)QRSLQTLRXIQRX(Cha)(2-Nal)] (Ac-H[hArg]QRSLQTLR[S5]IQR[S5][Cha][2Nal]-NH2; staple 11-15)
2.43 | CC[C@H](C)[C@@H]1NC(=O)[C@@](C)(NC(=O)[C@H](CCCNC(=N)N)NC(=O)[C@H](CC(C)C)NC(=O)[C@@H](NC(=O)[C@H](CCC(N)=O)NC(=O)[C@H](CC(C)C)NC(=O)[C@H](CO)NC(=O)[C@H](CCCNC(=N)N)N(C)C(=O)[C@H](CCC(N)=O)NC(=O)[C@H](CCCNC(=N)N)NC(=O)[C@H](Cc2c[nH]cn2)NC(C)=O)[C@@H](C)O)CCCC=CCCC[C@@](C)(C(=O)N[C@@H](CC2CCCCC2)C(=O)N[C@@H](Cc2ccc3ccccc3c2)C(N)=O)NC(=O)[C@H](CCCNC(=N)N)NC(=O)[C@H](CCC(N)=O)NC1=O [SEQ ID NO: 184, HRQ(N-MeArg)SLQTLRXIQRX(Cha)(2-Nal)] (Ac-HRQ[NMeR]SLQTLR[S5]IQR[S5][Cha][2Nal]-NH2; staple 11-15)
1.9 | CC[C@H](C)[C@@H]1NC(=O)[C@@](C)(NC(=O)[C@H](CCCNC(=N)N)NC(=O)[C@H](CC(C)C)NC(=O)[C@@H](NC(=O)[C@H](CCC(N)=O)N(C)C(=O)[C@H](CC2CCCCC2)NC(=O)[C@H](CO)NC(=O)[C@H](CCCNC(=N)N)NC(=O)[C@H](CCC(N)=O)NC(=O)[C@H](CCCNC(=N)N)NC(=O)[C@H](Cc2c[nH]cn2)NC(C)=O)[C@@H](C)O)CCCC=CCCC[C@@](C)(C(=O)N[C@@H](CC2CCCCC2)C(=O)N[C@@H](Cc2ccc3ccccc3c2)C(N)=O)NC(=O)[C@H](CCCNC(=N)N)NC(=O)[C@H](CCC(N)=O)NC1=O [SEQ ID NO: 185, HRQRS(Cha)(N-MeGln)TLRXIQRX(Cha)(2-Nal)] (Ac-HRQRS[Cha][NMeQ]TLR[S5]IQR[S5][Cha][2Nal]-NH2; staple 11-15)
2.23 | CC[C@H](C)[C@@H]1NC(=O)[C@@](C)(NC(=O)[C@H](CCCNC(=N)N)NC(=O)[C@H](CC(C)C)NC(=O)[C@@H](NC(=O)[C@H](CCC(N)=O)N(C)C(=O)[C@H](CC2CCCCC2)N(C)C(=O)[C@H](CO)NC(=O)[C@H](CCCNC(=N)N)NC(=O)[C@H](CCC(N)=O)NC(=O)[C@H](CCCNC(=N)N)NC(=O)[C@H](Cc2c[nH]cn2)NC(C)=O)[C@@H](C)O)CCCC=CCCC[C@@](C)(C(=O)N[C@@H](CC2CCCCC2)C(=O)N[C@@H](Cc2ccc3ccccc3c2)C(N)=O)NC(=O)[C@H](CCCNC(=N)N)NC(=O)[C@H](CCC(N)=O)NC1=O [SEQ ID NO: 186, HRQRS(N-MeCha)(N-MeGln)TLRXIQRX(Cha)(2-Nal)] (Ac-HRQRS[NMeCha][NMeQ]TLR[S5]IQR[S5][Cha][2Nal]-NH2; staple 11-15)
2.18 | CC[C@H](C)[C@@H]1NC(=O)[C@@](C)(NC(=O)[C@H](CCCNC(=N)N)NC(=O)[C@H](CC(C)C)NC(=O)[C@@H](NC(=O)[C@H](CCC(N)=O)N(C)C(=O)[C@@H](CC2CCCCC2)NC(=O)[C@H](CO)NC(=O)[C@H](CCCNC(=N)N)NC(=O)[C@H](CCC(N)=O)NC(=O)[C@H](CCCNC(=N)N)NC(=O)[C@H](Cc2c[nH]cn2)NC(C)=O)[C@@H](C)O)CCCC=CCCC[C@@](C)(C(=O)N[C@@H](CC2CCCCC2)C(=O)N[C@@H](Cc2ccc3ccccc3c2)C(N)=O)NC(=O)[C@H](CCCNC(=N)N)NC(=O)[C@H](CCC(N)=O)NC1=O [SEQ ID NO: 187, HRQRSD(Cha)(N-MeGln)TLRXIQRX(Cha)(2-Nal)] (Ac-HRQRS[dCha][NMeQ]TLR[S5]IQR[S5][Cha][2Nal]-NH2; staple 11-15; N-terminus and C-terminus assumed)
3.28 | CC[C@H](C)[C@@H]1NC(=O)[C@@](C)(NC(=O)[C@H](CCCNC(=N)N)NC(=O)[C@H](CC(C)C)NC(=O)[C@@H](NC(=O)[C@H](CCC(N)=O)NC(=O)[C@H](CC(C)C)NC(=O)[C@H](CO)NC(=O)[C@H](CCCNC(=N)N)NC(=O)[C@H](CCC(N)=O)NC(=O)[C@H](CCCNC(=N)N)NC(=O)[C@H](Cc2c[nH]cn2)NC(C)=O)[C@@H](C)O)CCCC=CCCC[C@@](C)(C(=O)N[C@@H](CC2CCCCC2)C(=O)N[C@H](Cc2ccc3ccccc3c2)C(N)=O)NC(=O)[C@H](CCCNC(=N)N)NC(=O)[C@H](CCC(N)=O)NC1=O [SEQ ID NO: 188, HRQRSLQTLRXIQRX(Cha)(2DNal)] (Ac-HRQRSLQTLR[S5]IQR[S5][Cha][d2Nal]-NH2; staple 11-15)
3.25 | CC[C@H](C)[C@@H]1NC(=O)[C@@](C)(NC(=O)[C@H](CCCNC(=N)N)N(C)C(=O)[C@H](CC(C)C)NC(=O)[C@@H](NC(=O)[C@H](CCC(N)=O)NC(=O)[C@H](CC(C)C)NC(=O)[C@H](CO)NC(=O)[C@H](CCCNC(=N)N)NC(=O)[C@H](CCC(N)=O)NC(=O)[C@H](CCCNC(=N)N)NC(=O)[C@H](Cc2c[nH]cn2)NC(C)=O)[C@@H](C)O)CCCC=CCCC[C@@](C)(C(=O)N[C@@H](CC2CCCCC2)C(=O)N[C@@H](Cc2ccc3ccccc3c2)C(N)=O)NC(=O)[C@H](CCCNC(=N)N)NC(=O)[C@H](CCC(N)=O)NC1=O [SEQ ID NO: 189, HRQRSLQTL(N-MeArg)XIQRX(Cha)(2-Nal)] (Ac-HRQRSLQTL[NMeR][S5]IQR[S5][Cha][2Nal]-NH2; staple 11-15)
5.89 | CC[C@H](C)[C@@H]1NC(=O)[C@@](C)(NC(=O)[C@H](CCCNC(=N)N)NC(=O)[C@H](CC(C)C)NC(=O)[C@@H](NC(=O)[C@H](CCC(N)=O)NC(=O)[C@H](CC(C)C)NC(=O)[C@H](CO)NC(=O)[C@H](CCCNC(=N)N)NC(=O)[C@H](CCC(N)=O)NC(=O)[C@H](CCCNC(=N)N)NC(=O)[C@H](Cc2c[nH]cn2)NC(C)=O)[C@@H](C)O)CCCC=CCCC[C@@](C)(C(=O)N[C@@H](CC2CCCCC2)C(=O)N[C@@H](Cc2ccc3ccccc3c2)C(N)=O)NC(=O)[C@H](CCCNC(=N)N)N(C)C(=O)[C@H](CCC(N)=O)NC1=O [SEQ ID NO: 190, HRQRSLQTLRXIQ(N-MeArg)X(Cha)(2-Nal)] (Ac-HRQRSLQTLR[S5]IQ[NMeR][S5][Cha][2Nal]-NH2; staple 11-15)
2.87 | CC[C@H](C)[C@@H]1NC(=O)[C@@](C)(NC(=O)[C@H](CCCNC(=N)N)NC(=O)[C@H](CC(C)C)NC(=O)[C@@H](NC(=O)[C@H](CCC(N)=O)NC(=O)[C@H](CC(C)C)NC(=O)[C@H](CO)NC(=O)[C@H](CCCNC(=N)N)NC(=O)[C@H](CCC(N)=O)NC(=O)[C@H](CCCNC(=N)N)NC(=O)[C@H](Cc2c[nH]cn2)NC(C)=O)[C@@H](C)O)CCCC=CCCC[C@@](C)(C(=O)N[C@@H](CC(C)(C)C)C(=O)N[C@@H](Cc2ccc3ccccc3c2)C(N)=O)NC(=O)[C@H](CCCNC(=N)N)NC(=O)[C@H](CCC(N)=O)NC1=O [SEQ ID NO: 191, HRQRSLQTLRXIQRX(β-tBu-Ala)(2-Nal)] (Ac-HRQRSLQTLR[S5]IQR[S5][tBuAla][2Nal]-NH2; staple 11-15)

From patent US11591365B2, “BCL9 peptides and variants thereof” (WntRx Pharmaceuticals Inc., priority 2017, dated 2023)
